Source: patent US20100105638A1, “COSMETIC COMPOSITIONS” (priority 2007, published 2010)
Where two headings read alike, the source gives them in different places.

Columns and labels:
[1] = Solubility of Biotin in aqueous niacinamide / sodium ascorbyl phosphate solutions (addition until turbid); assay type: physicochemical
Protocol: The solubility of Biotin was assessed in aqueous niacinamide (Niacinamide PC, DSM Nutritional Products)/sodium ascorbyl phosphate (STAY-C® 50, DSM Nutritional Products) solutions in different concentration. As reference, the solubility of biotin in water was assessed.
After the addition of 5 g of water into a 10 ml glass vial, STAY-C® 50 and Niacinamide PC were added in order to yield the ratios and wt. % as indicated in table 1. The mixtures were stirred with a magnetic stirrer at RT until STAY-C® 50 and Niacinamide PC were completely dissolved. Then, biotin was added in about 1 mg steps to the mixture until the solution becomes turbid. This experiment was repeated twice.
The sum of the amount of biotin which was added before the turbidity occurred is taken as the solubility of Biotin.

[2] = hot water; cited from earlier work

**Q.** With `O=C(O)CCCC[C@@H]1SC[C@@H]2NC(=O)N[C@@H]21` [Biotin] as the compound, how does the “Solubility of Biotin” value ([1]; Reference: water without STAY-C 50 and Niacinamide PC, RT) read?
**A.** 0.022 wt. %

**Q.** What about the “Solubility of Biotin” value ([1]; water, STAY-C 50 0.1 wt. %, Niacinamide PC 1 wt. %, ratio 1:10, RT) of the same compound?
**A.** 0.15 wt. %

**Q.** And the “Solubility of Biotin” value ([1]; water, STAY-C 50 0.1 wt. %, Niacinamide PC 3 wt. %, ratio 1:30, RT)?
**A.** 0.17 wt. %

**Q.** What about the “Solubility of Biotin” value ([1]; water, STAY-C 50 0.1 wt. %, Niacinamide PC 5 wt. %, ratio 1:50, RT) of the same compound?
**A.** 0.20 wt. %

**Q.** What about the “Solubility of Biotin” value ([1]; water, STAY-C 50 0.1 wt. %, Niacinamide PC 10 wt. %, ratio 1:100, RT) of the same compound?
**A.** 0.26 wt. %

**Q.** What about the “Solubility of Biotin” value ([1]; water, STAY-C 50 0.5 wt. %, Niacinamide PC 1 wt. %, ratio 1:2, RT) of the same compound?
**A.** 0.33 wt. %

**Q.** And the “Solubility of Biotin” value ([1]; water, STAY-C 50 0.5 wt. %, Niacinamide PC 3 wt. %, ratio 1:6, RT)?
**A.** 0.38 wt. %

**Q.** What about the “Solubility of Biotin” value ([1]; water, STAY-C 50 0.5 wt. %, Niacinamide PC 5 wt. %, ratio 1:10, RT) of the same compound?
**A.** 0.41 wt. %

**Q.** What about the “Solubility of Biotin” value ([1]; water, STAY-C 50 0.5 wt. %, Niacinamide PC 10 wt. %, ratio 1:20, RT) of the same compound?
**A.** 0.47 wt. %

**Q.** And the “Solubility of Biotin” value ([1]; water, STAY-C 50 1.0 wt. %, Niacinamide PC 1 wt. %, ratio 1:1, RT)?
**A.** 0.64 wt. %

**Q.** And the “Solubility of Biotin” value ([1]; water, STAY-C 50 1.0 wt. %, Niacinamide PC 3 wt. %, ratio 1:3, RT)?
**A.** 0.66 wt. %

**Q.** What about the “Solubility of Biotin” value ([1]; water, STAY-C 50 1.0 wt. %, Niacinamide PC 5 wt. %, ratio 1:5, RT) of the same compound?
**A.** 0.70 wt. %

**Q.** And the “Solubility of Biotin” value ([1]; water, STAY-C 50 1.0 wt. %, Niacinamide PC 10 wt. %, ratio 1:10, RT)?
**A.** 0.76 wt. %

**Q.** What about the “Solubility of Biotin” value ([1]; water, STAY-C 50 3.0 wt. %, Niacinamide PC 1 wt. %, ratio 3:1, RT) of the same compound?
**A.** 1.53 wt. %

**Q.** And the “Solubility of Biotin” value ([1]; water, STAY-C 50 3.0 wt. %, Niacinamide PC 3 wt. %, ratio 1:1, RT)?
**A.** 1.65 wt. %

**Q.** And the “Solubility of Biotin” value ([1]; water, STAY-C 50 3.0 wt. %, Niacinamide PC 5 wt. %, ratio 1:1.6, RT)?
**A.** 1.71 wt. %

**Q.** What about the “Solubility of Biotin” value ([1]; water, STAY-C 50 3.0 wt. %, Niacinamide PC 10 wt. %, ratio 1:3.3, RT) of the same compound?
**A.** 1.78 wt. %

**Q.** What about the Solubility of Biotin [2] of the same compound?
**A.** about 0.02 g/100 ml
